# In patent US7432045B2 (priority 2003, dated 2008):
# Peptide text beside a SMILES is read from it. * marks the point of attachment. Biotin = O=C1N[C@H]2[C@H](CS[C@H]2CCCCC(=O)*)N1; Ahx = NCCCCCC(=O)O
# Key:
# MTS assay [1] = conditions: human, NIKS cells (normal immortalized keratinocytes)
# [2] = tested on: Vero, HeLa, CV-1PD, TM-1, DP-9, CEMx174, NIKS, W12E cells; assay: MTS assay, eight cell lines; conditions: eight cell lines
# MTS assay [3] = conditions: human, DP-9 cells (foreskin fibroblast)
# MTS assay [4] = conditions: human, CEMx174 cells (T-B hybridoma)
# MTS assay [5] = conditions: human, HeLa cells
# MTS assay [6] = conditions: African green monkey, CV-1PD cells (kidney)
# MTS assay [7] = conditions: human, W12E cells (cervical carcinoma cell line)
# MTS assay [8] = conditions: human, TM-1 cells (trabecular meshwork)
# MTS assay [9] = conditions: African green monkey, Vero cells
# cornea = assay: In vivo peptide toxicity, cornea; design: species or system BALB/C mice
# Protocol: (i) Cornea: Four-6-week-old female BALB/C mice (Harlan Sprague Dawley, Indianapolis, Ind.) were anesthetized by halothane inhalation (3-5%). A 2.0 μL drop of serum-free 5×DMEM solution containing 6.1 mM EB, 6.1 mM EBX, 7.5 mM TAT-C, 7.5 mM n50,51 TAT-C, 7.5 mM TAT-Cd, or 11.2 mM bHOMd or serum-free DMEM only (control) was then placed on the cornea and the mice were returned to their cages. Each group consisted of 5 mice, except for 11.2 mM bHOMd, and 7.5 mM TAT-Cd, which consisted of 4 mice. Only the right eye in each mouse received the peptide. Treatments were given 4 times per day at least 2 hrs apart for 7 days. On days 1, 5, and 7, the mice were examined microscopically for evidence of blepharitis, punctate keratopathy, dendrite ulceration and geographic ulceration. Damage to the corneal epithelium was assessed by staining with 1.0% […] and examination under a microscope with blue light. Blepharitis was scored: 1+ for noticeable puffy eyelids, 2+ for puffy eyelids with moderate crusting, 3+ for eye 50% swollen shut with severe crusting, and 4+ for eye totally swollen and crusted shut (Brandt et al., 1992). Punctate keratopathy, dendrite ulceration, and geographic ulceration were scored: 1+ for <25% of the cornea involved, 2+ for 25-50% involved, 3+ for 50-75% involved, and 4+ for >75% involved. The mean disease score for each group of mice on each day was calculated by the sum of disease scores in each group on each day divided by the numbers of mice in that group. On day 7, following the last treatment, the mice were sacrificed and the eyes were removed, fixed in 10% formalin, embedded in paraffin, sectioned (5μ each), and stained with hematoxylin and eosin as we have described previously (Brandt et al., 1996). Sections were then examined for evidence of damage to the cornea, sclera, lens, and retina.
# HSV-1 KOS mutant hrR3 [10] = assay: Release of preadsorbed virus into the culture medium; type: cell-based
# Protocol: Release of preadsorbed virus into the culture medium: Virus preadsorbed to Vero cells (m.o.i.=0.02) was exposed to heparin (porcine intestinal mucosa; Sigma-Aldrich Co., St. Louis Mo.; #H9399) or to peptides in 40 μL of serum-supplemented DMEM. After 1 h at 4° C., the culture medium and two 40 μL rinses were collected and pooled from eight identically treated wells. Pooled samples were centrifuged at 14,000×g in an Eppendorf 5415 centrifuge for 99 min at 4° C. or they were first adjusted to 0.5 M NaCl by adding 2 M NaCl dissolved in serum-supplemented DMEM prior to centrifugation. Supernatants were aspirated, the pellets were resuspended in 120 μL serum-supplemented DMEM and duplicate 50 μL aliquots were assayed for infectivity in Vero cell cultures. Calculations of the amount of released virus assumed 47% virus recovery in the centrifugation step, since control experiments had established that 47% of virus input was recovered regardless of whether the virus was sedimented in the presence or absence of 0.5 M NaCl.
# In this example pre-adsorbed virus was exposed to heparin (FIG. 19 Panels A, B) or TAT-Cd peptide (FIG. 19 Panels C, D) for 1 h at 4° C. (FIG. 19 Panels A, B, C) or 18° C. (FIG. 19 Panel D) and any virus released into the culture medium during this time was collected and pelleted in the presence (◯) or absence (▴) of 0.5 M NaCl and assayed for infectivity as described in Example 1. […] Virus inhibition (●) corresponds to the number of LacZ+ cells seen in the absence of inhibitor minus the number of LacZ+ cells seen in the presence of inhibitor and is equivalent to the maximal amount of virus potentially released into the culture medium as a result of virus inhibition. Panel B compares the amount of infectious virus recovered in the presence (◯; data from Panel A) and absence (▴) of 0.5 M NaCl at an expanded scale.
# hrR3 virions = assay: Inactivation of virions in solution; type: cell-based, HSV-1; conditions: 200 μM peptide
# Protocol: Inactivation of virions: To assess the ability of peptides to inactivate virions, 3-4×10^6 pfu/mL of virus was mixed on ice with peptide in serum-free DMEM and incubated for 1 h at 4 or 37° C. Aliquots (10 μL) were diluted 1000-fold into peptide-free serum-supplemented DMEM at 23° C. and 50 μL aliquots were assayed in triplicate for infectivity in Vero cell cultures (dilution assay). Alternatively, 10 μL aliquots were diluted into 1 mL of ice-cold peptide-free serum-supplemented DMEM and the virus was pelleted as described above (centrifugation assay). Viral pellets were then resuspended in 250 μL serum-supplemented DMEM and 50 μL aliquots were assayed in triplicate for infectivity in Vero cell cultures.
# Some of the virus diluted without the addition of NaCl was pelleted immediately (Control), while the rest of the diluted virus was stored at 4° C. and pelleted 19 h later. The virus was pelleted and assayed for infectivity as described in Example 1.
# HSV-1 KOS mutant hrR3 [11] = assay: Inactivation of pre-adsorbed virus (virus inactivation); type: cell-based; conditions: pre-adsorbed virus
# Protocol: Two assays were used to assess the ability of the TAT peptides to inhibit infection of Vero cells with the hrR3 virus. In both assays, the virus was preadsorbed to cells at 4° C. and entry was initiated in the presence of peptide by shifting the cultures to a permissive temperature (30-37° C.). One hour later, the peptide was rinsed off. The entry blocking activity was measured in half of the cultures, in which any extracellular virus remaining after the peptide treatment was inactivated with low pH citrate buffer. The rest of the cultures were exposed to PBS instead of citrate buffer and used to measure virus inactivation. Virus inactivation depended on persistent effects of the peptide lasting for a period of eight hours. At the end of that period, all cultures were fixed and infected cells were detected by staining with X-gal.
# Virus (m.o.i.=0.025) was preadsorbed to Vero cells for 1 h at 4° C. before cultures were exposed to TAT-C (FIG. 15A), bTAT-9X (FIG. 15B), or n50,51TAT-C (FIGS. 15C, 15D) for 1 h at 33 (FIGS. 15A, 15B), 31 (FIG. 15C), or 37° C. (FIG. 15D). […] Inhibition of entry was measured in the citrate-treated cultures, in which any remaining external virus was inactivated immediately following exposure to peptide (●). Persistent virus inactivation lasting, at least in part, for the 8 h period following exposure to peptide, was measured in the PBS-treated cultures (◯). The IC50s measured in these experiments are included in Table 5.
# trypsin = target: T1, trypsin (Sus scrofa, UniProt P00761); assay: Trypsinization of peptides; conditions: 0.005 or 0.01% trypsin, 1 h at 37° C.
# T1 construct: purchased BioWhittaker 17-160E
# T1 sequence (P00761 9-231): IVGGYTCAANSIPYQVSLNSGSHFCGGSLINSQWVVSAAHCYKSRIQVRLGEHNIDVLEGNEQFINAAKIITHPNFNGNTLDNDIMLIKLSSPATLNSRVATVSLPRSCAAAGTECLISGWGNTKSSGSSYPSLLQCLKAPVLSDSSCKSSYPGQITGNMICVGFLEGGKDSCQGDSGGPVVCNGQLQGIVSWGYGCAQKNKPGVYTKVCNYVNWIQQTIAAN
# Protocol: Trypsinization of peptides: Peptides dissolved in serum-free DMEM were exposed to 0.005 or 0.01% trypsin for 1 h at 37° C. The trypsin was then inactivated with a 1.3-fold molar excess of soybean trypsin inhibitor and the ability of the peptides to inactivate virions was tested as described above (centrifugation assay). In controls, trypsin was inactivated before it was added to the peptides.
# In Panel B, peptides in serum-free medium were pre-treated with active trypsin (open bars) or inactivated trypsin (shaded bars) for 1 h at 37° C. before they were added to virions for 1 h at 37° C. (see Example 1). The treated virions were then pelleted and resuspended in serum-supplemented medium and assayed for infectivity without further trypsinization. The peptide concentrations were as high or higher than those used in Panel A: […] TAT-C, 50 μM bKLA, 200 μM EB and bHOM-9. Trypsin concentrations used in both Panels A and B, were 0.005% (for bKLA, EB and bHOM-9) or 0.01% (for TAT-C and the ‘no peptide’ control).
# vagina = conditions: mouse, in vivo
compound,measurement,setting,value
CC[C@H](C)[C@H](NC(=O)[C@H](CCCCN)NC(=O)[C@@H](NC(=O)[C@H](CCC(N)=O)NC(=O)[C@H](CCCNC(=N)N)NC(=O)CCCCCNC(=O)CCCC[C@@H]1SC[C@@H]2NC(=O)N[C@@H]21)[C@@H](C)CC)C(=O)N[C@@H](Cc1c[nH]c2ccccc12)C(=O)N[C@@H](Cc1ccccc1)C(=O)N1CCC[C@H]1C(=O)N[C@@H](CC(N)=O)C(=O)N[C@@H](CCCNC(=N)N)C(=O)N[C@@H](CCCNC(=N)N)C(=O)N[C@@H](CCSC)C(=O)N[C@@H](CCCCN)C(=O)N[C@@H](Cc1c[nH]c2ccccc12)C(=O)N[C@@H](CCCCN)C(=O)N[C@@H](CCCCN)C(N)=O [bHOM] ({Biotin-Ahx}-RQIKIWFPNRRMKWKK-NH2; N-terminus and C-terminus assumed),EC50,MTS assay [1],> 200 µM
same,"cytotoxicity to cells (MTS), overall",[2],generally not cytotoxic
same,EC50,MTS assay [3],150 µM
same,EC50,MTS assay [4],50 µM
same,EC50,MTS assay [5],100 µM
same,EC50,MTS assay [6],180 µM
same,EC50,MTS assay [7],> 200 µM
same,EC50,MTS assay [8],> 200 µM
same,EC50,MTS assay [9],75 µM
"N=C(N)NCCC[C@@H](NC(=O)CN)C(=O)N[C@H](CCCCN)C(=O)N[C@H](CCCCN)C(=O)N[C@H](CCCNC(=N)N)C(=O)N[C@H](CCCNC(=N)N)C(=O)N[C@H](CCC(N)=O)C(=O)N[C@H](CCCNC(=N)N)C(=O)N[C@H](CCCNC(=N)N)C(=O)N[C@H](CCCNC(=N)N)C(=O)N[C@H](CS)C(=O)O [TAT-Cd, NH2-GRKKRRQRRRC-COOH]",punctate keratopathy,cornea; calcein staining,very mild punctate keratopathy
same,blepharitis,cornea; four times a day for seven days,mild blepharitis
same,inactivation of preadsorbed virus,HSV-1 KOS mutant hrR3 [10]; 18° C.,93%
same,virus recovery,"HSV-1 KOS mutant hrR3 [10]; 18° C., 0.5 M NaCl",≤ 5.6%
same,potentially released virus actually recovered in the medium,"HSV-1 KOS mutant hrR3 [10]; 1 h treatment at 4° C., 0.5 M NaCl",4.4%
same,infectious preadsorbed virus recovered in the culture medium (maximal),"HSV-1 KOS mutant hrR3 [10]; summary, FIG. 19",about 5%
same,"recovery of infectious virions, of the mock-treated virus","hrR3 virions; 1 h at 37° C., pelleted immediately",< 1%
same,"increase of viral yields by 0.5 M NaCl during 19 h incubation, of the mock-treated controls",hrR3 virions; 19 h at 4° C.,about 1%
same,plateau / maximal extent of virus inactivation,HSV-1 KOS mutant hrR3 [11],~100%
same,effect of trypsinization of the peptide on its antiviral activity,trypsin,no effect on antiviral activity
same,concentration at which not active against the H5 strain,H5 Avian Influenza virus,> 100 µM
same,inhibition after rinsing with 0.5 M NaCl,hrR3; 30 μM peptide 1 h at 4° C.,completely reversed
same,infection blocked,"hrR3; 30 μM peptide 1 h at 4° C., rinsed with culture medium alone",90%
same,time needed to induce cellular resistance,"hrR3; 30 μM peptide, 37° C.",almost instantaneously
nonoxynol-9 [N−9],effect on vaginal tissues (H&E sections),vagina,No differences in the appearance of the tissues
